Test results as given in ChEMBL document CHEMBL4619775, “2-Arylbenzo[d]oxazole Phosphinate Esters as Second-Generation Modulators of Utrophin for the Treatment of Duchenne Muscular Dystrophy” (J Med Chem, 2020).
Converted amounts (≈) assume the structure as drawn. The source made the active and inactive calls. No cut-off for these calls is given here.

Key:
[1] = Intrinsic clearance in mouse hepatocytes assessed per 10^6 cells
[2] = Stability in mouse hepatocytes assessed as half life
[3] = Apparent permeability from apical to basolateral side in human Caco2; details: Caco-2
[4] = Apparent permeability from basolateral to apical side in human Caco2; details: Caco-2
[5] = Solubility of compound by turbidimetric assay
[6] = Plasma protein binding in mouse
[7] = Plasma protein binding in human
[8] = Microsomal stability in mouse liver microsomes assessed as half life
[9] = Microsomal stability in human liver microsomes assessed as half life
[10] = Intrinsic clearance in mouse liver microsomes
[11] = Intrinsic clearance in human liver microsomes
[12] = Drug level in rat treated with methyl ethyl(2-(3-(trifluoromethyl)phenyl)benzo[d]oxazol-5-yl)phosphinate assessed as compound formation; assay type: ADME; details: in vivo
[13] = Aqueous kinetic solubility of the compound; details: buffer
[14] = organism: Mus musculus; assay: Upregulation of utrophin expression in dystrophin-deficient mouse myoblasts at 10 uM after 72 hrs by Western blot analysis; assay type: functional
[15] = Volume of distribution in mdx mouse at 1 mg/kg, iv; details: in vivo
[16] = test system: Mus musculus; assay: Protection against DMD in mdx C57BL/10 mouse assessed as force drop in extensor digitorum longus muscle at 30 mg/kg, po qd for 5 weeks measured post-last dose (reference value: 44.9%); assay type: functional
[17] = test system: Mus musculus; assay: Protection against stretch-induced damage in mdx C57BL/10 mouse assessed as improvement in muscle resistance at 30 mg/kg, po qd for 5 weeks; assay type: functional
[18] = Half life in mdx mouse at 5 mg/kg, po after 1 day; details: in vivo, t1/2
[19] = Drug metabolism in mouse hepatocytes assessed as interconversion to opposite enantiomeric form after 60 mins; details: 1 h
[20] = Drug metabolism in human hepatocytes assessed as interconversion to opposite enantiomeric form after 60 mins; details: 1 h
[21] = mouse, in vivo, po, 5 mg/kg, 24 h
[22] = mouse, in vivo, po, 5 mg/kg, 168 h
[23] = mouse, in vivo, iv, 1 mg/kg
[24] = mouse, in vivo, po, 5 mg/kg, 24 h; remark: listed apart in the source
[25] = mouse, in vivo, po, 5 mg/kg, 168 h; remark: listed apart in the source
[26] = mouse, in vivo, po, 5 mg/kg, 24 h; remark: listed apart in the source
[27] = in vivo; details: mdx, mouse, iv, 1 mg/kg
[28] = in vivo; details: mdx, mouse, po, 5 mg/kg, F
[29] = organism: Mus musculus; assay: Upregulation of utrophin expression in dystrophin-deficient mouse myoblasts after 72 hrs by Western blot analysis; assay type: functional
[30] = biological target: 5-hydroxytryptamine receptor 2B (Homo sapiens, UniProt P41595); assay: Antagonist activity at human Gq-coupled 5HT2B receptor expressed in HEK293 cells assessed as inhibition of serotonin-induced calcium mobilization by calcium-sensitive dye based FLIPR assay; assay type: functional, cell-based
[31] = mouse, in vivo, po, 5 mg/kg, 168 h; remark: listed apart in the source
[32] = Stability in human hepatocytes assessed as half life after 60 mins
[33] = Drug metabolism in mouse hepatocytes assessed as compound racemization after 60 mins; details: 1 h
[34] = Drug metabolism in human hepatocytes assessed as compound racemization after 60 mins; details: 1 h
[35] = mouse, in vivo, iv, 1 mg/kg; remark: listed apart in the source
[36] = Intrinsic clearance in mouse hepatocytes after 60 mins; details: 1 h
[37] = Intrinsic clearance in human hepatocytes after 60 mins; details: 1 h
[38] = Stability in mouse hepatocytes assessed as half life after 60 mins

5-hydroxytryptamine receptor 2B, sequence (P41595 whole entry): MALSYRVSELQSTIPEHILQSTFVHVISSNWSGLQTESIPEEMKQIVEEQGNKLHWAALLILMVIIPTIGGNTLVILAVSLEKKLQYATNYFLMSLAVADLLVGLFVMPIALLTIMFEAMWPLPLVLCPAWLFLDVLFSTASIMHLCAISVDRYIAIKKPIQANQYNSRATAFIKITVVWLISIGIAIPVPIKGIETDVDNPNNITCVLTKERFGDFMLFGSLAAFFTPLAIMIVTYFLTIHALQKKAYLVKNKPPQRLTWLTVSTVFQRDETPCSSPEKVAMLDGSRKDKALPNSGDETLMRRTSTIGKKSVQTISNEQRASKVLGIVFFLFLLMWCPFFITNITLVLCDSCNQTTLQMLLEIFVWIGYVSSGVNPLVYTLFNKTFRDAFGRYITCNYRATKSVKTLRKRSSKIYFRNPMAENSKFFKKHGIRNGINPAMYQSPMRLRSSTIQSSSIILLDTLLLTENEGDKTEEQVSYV

CCP(=O)(OC1CCC1)c1ccc2oc(-c3cccc(C(F)(F)F)c3)nc2c1 (configuration not stated)
hepatocyte CLint [1]: 32.8 µL/min/1e6 cells
half-life [2]: 0.35 h
Papp A→B [3]: 6.38 ×10⁻⁶ cm/s
Papp B→A [4]: 3.98 ×10⁻⁶ cm/s

O=S1(=O)CCCN1c1ccc2oc(-c3ccc4ccccc4c3)nc2c1
solubility kinetic [5]: 3 to 10 µM (≈ 1.09 to 3.64 µg/mL)

COP(=O)(c1ccc2nc(-c3ccc(F)cc3)oc2c1)C(C)C (configuration not stated)
solubility kinetic [5]: > 100 µM
fraction unbound [6]: 0.17
fraction unbound [7]: 0.04
half-life ([8]; liver microsomes): 0.45 h
half-life ([9]; liver microsomes): > 17.1 h

CC(C)C(=O)Nc1ccc2oc(-c3ccc4ccccc4c3)nc2c1
solubility kinetic [5]: 1 to 3 µM (≈ 0.33 to 0.991 µg/mL)

CC(=O)Nc1ccc2oc(-c3ccc4ccccc4c3)nc2c1
solubility kinetic [5]: 3 to 10 µM (≈ 0.907 to 3.02 µg/mL)

CCOP(=O)(CC)c1ccc2oc(-c3ccc(F)cc3)nc2c1 (configuration not stated)
solubility kinetic [5]: > 100 µM
fraction unbound [6]: 0.16
fraction unbound [7]: 0.08
microsomal CLint ([10]; liver microsomes): 39.1 µL/min/mg
half-life ([8]; liver microsomes): 0.6 h
microsomal CLint ([11]; liver microsomes): 2.41 µL/min/mg
half-life ([9]; liver microsomes): 9.58 h

CCP(=O)(O)c1ccc2oc(-c3cccc(C(F)(F)F)c3)nc2c1
fraction unbound [7]: 0.01
Drug uptake [12]: Active
hepatocyte CLint [1]: < 2.89 µL/min/1e6 cells
half-life [2]: 4 h
solubility kinetic [13]: 337 µM (≈ 120 µg/mL)

CCP(=O)(OC1CC1)c1ccc2oc(-c3cccc(C(F)(F)F)c3)nc2c1 (configuration not stated)
hepatocyte CLint [1]: 8.65 µL/min/1e6 cells
half-life [2]: 1.33 h
Papp A→B [3]: 10.6 ×10⁻⁶ cm/s
Papp B→A [4]: 5.75 ×10⁻⁶ cm/s

CCP(=O)(OC1CC1)c1ccc2nc(-c3cccc(C(F)(F)F)c3)oc2c1 (configuration not stated)
fraction unbound [6]: 0.01
hepatocyte CLint [1]: 8.92 µL/min/1e6 cells
half-life [2]: 1.3 h
solubility kinetic [13]: 652 µM (≈ 258 µg/mL)

CCP(=O)(OC)c1ccc2nc(-c3cnc4ccccc4c3)oc2c1 (configuration not stated)
solubility kinetic [5]: > 100 µM
fraction unbound [6]: 0.23
fraction unbound [7]: 0.1
half-life ([8]; liver microsomes): > 73.3 h

CCP(=O)(OC)c1ccc2nc(-c3ccc(F)cc3)oc2c1 (configuration not stated)
Activity [14]: inactive

CCP(=O)(OC)c1ccc2oc(-c3ccc(F)cc3)nc2c1 (racemic) [listing 1 of 2 here]
solubility kinetic [5]: > 100 µM
PPB [6]: 75%
fraction unbound ([7]; PPB): 0.12
half-life ([8]; microsomes): 1.43 h
half-life ([9]; microsomes): 6.38 h
Vd ([15]; mdx, Vd): 1.46 L/kg
Activity [16]: 31.8%
Activity [17]: 29%
half-life at 24 h [18]: 2.25 h
Drug metabolism [19]: < 1%
Drug metabolism [20]: < 1%
Cmax [21]: 734 ng/mL
Cmax [22]: 566 ng/mL
AUC [23]: 431 ng·h/mL
AUC [24]: 1660 ng·h/mL
AUC [25]: 1160 ng·h/mL
F [26]: 77.2%
Cmax [27]: 562 ng/mL
bioavailability at 168 h [28]: 53.7%

CCP(=O)(OC)c1ccc2oc(-c3ccc(F)cc3)nc2c1 (racemic) [listing 2 of 2 here]
Activity [29]: Dose-dependent effect

CCP(=O)(OC)c1ccc2oc(-c3cccc(C(F)(F)F)c3)nc2c1 (racemic)
Activity [29]: Dose-dependent effect

CCP(=O)(OC)c1ccc2oc(-c3ccc(F)cc3)nc2c1 (single isomer, unassigned; (+))
EC50 [30]: 9.3 µM
PPB [6]: 80%
Activity [16]: 29.4%
Activity [17]: 35%
Cmax [21]: 542 ng/mL
Cmax [22]: 736 ng/mL
AUC [23]: 510 ng·h/mL
AUC [24]: 1570 ng·h/mL
AUC [25]: 1620 ng·h/mL
F [31]: 63.7%
F [26]: 61.6%

CCP(=O)(OC)c1ccc2oc(-c3ccc(F)cc3)nc2c1 (single isomer, unassigned; (-))
EC50 [30]: 50 µM
PPB [6]: 77%
PPB [7]: 85%
half-life at 1 h [32]: > 7.67 h
Vd [15]: 1.58 L/kg
Activity [16]: 44.4%
Drug metabolism [33]: Metabolite_Notdetected
Drug metabolism [34]: Metabolite_Notdetected
Cmax [35]: 477 ng/mL
Cmax [21]: 352 ng/mL
Cmax [22]: 299 ng/mL
AUC [23]: 226 ng·h/mL
AUC [24]: 444 ng·h/mL
AUC [25]: 513 ng·h/mL
F [31]: 45.4%
F [26]: 39.4%

CCS(=O)(=O)c1ccc2oc(-c3ccc4ccccc4c3)nc2c1 [EZUTROMID]
solubility kinetic [5]: 3 to 10 µM (≈ 1.01 to 3.37 µg/mL)
fraction unbound [6]: < 0.01
microsomal CLint ([10]; microsomes): 21 µL/min/mg
half-life ([8]; microsomes): 1.1 h
microsomal CLint ([11]; microsomes): 14.4 µL/min/mg
half-life ([9]; microsomes): 1.6 h
CLH [36]: 54 µL/min
CLH [37]: 31 µL/min
half-life at 1 h [38]: 0.433 h
half-life at 1 h [32]: 0.75 h
Drug metabolism [33]: Metabolite_Notdetected
Drug metabolism [34]: Metabolite_Notdetected
